“Also recorded” adds a separate entry of the source.
Assays:
[1] = Serum ALT/bilirubin and hepatic histology after GC-1 or T3; assay type: in vivo, mice
Description: All studies on mice were performed in strict accordance with Guidelines. Eight-week old male C57BL/6 male mice (Jackson/Charles River) were maintained on a standard laboratory basal diet (Test Diet) (n=4), or fed a T3-supplemented diet (4 mg/Kg of diet, Sigma Chemicals, St. Louis Mo.) (n=4). GC-1 was administered to the eight week-old male C57BL/6 male mice either via GC-1-supplemented diet (5 mg/Kg of diet, Medchem Express) for 8 days (n=4) or via daily intraperitoneal injections (IP) of GC-1 dissolved in DMSO (0.3 mg/kg/dose) for 8 days (n=7). As a control group for injections, DMSO alone was injected daily intraperitoneal (IP) for 8 days (n=5). Mice were sacrificed 24 hours after the last injection.

[2] = system: β-catenin-TCF4 reporter activity in HepG2 cells (exon-3-deletion mutant of CTNNB1); experiment: TopFlash reporter assay in HepG2 cells; assay type: cell-based, human; conditions: (methods: 5-7 μM, 24 hours), vs DMSO
Source text: Three liver tumor cell lines Hep3B, HepG2 and Snu-398 cells were obtained from ATCC (Manassas, Va.). Cells were transfected simultaneously with Renilla reniformis luciferase (pRL-TK; Promega, Madison, Wis.) as a transfection control and TopFlash firefly luciferase plasmids (Upstate Biotechnology, Lake Placid, N.Y.), which contains three copies of the Tcf/Lef sites upstream of a thymidine kinase (TK) promoter and the firefly luciferase gene using Lipofectamine 2000 (Life Technologies). Twenty-four hours after transfection, cells were treated with either DMSO (Fisher Scientific) or 5-7 μM GC-1 (Medchem Express, Monmouth Junction, N.J.) for 24 hours. Lysates were harvested using the Dual-Luciferase Reporter Assay System (Promega, Madison, Wis.). Firefly luciferase signals were normalized to Renilla luciferase and ratio between groups compared by student's t-test to determine significance. P<0.05 was considered significant.

[3] = system: hMet-S45Y-β-catenin HCC model; experiment: GC-1 diet in hMet-S45Y-β-catenin HCC model; assay type: in vivo, mice; conditions: for increase in gene expression of deiodinase (RT-PCR, liver): p<0.001
Description: SBTT plasmids and HTVI have been described previously (Tao et al., Hepatology 2016, 64:1587-605). Briefly, […] pT3-EF5α-hMet-V5 and pT3-EF5α-S45Y-β-catenin-Myc combination along with the transposase in a ratio of 25:1 were diluted in 2 ml of normal saline (0.9% NaCl), filtered through 0.22 μm filter (Millipore), and injected into the lateral tail vein of 23 FVB mice that were around 6-week-old, in 5-7 seconds. These mice are referred henceforth as hMet-mutant-β-catenin mice. Four weeks after injection, hMet-mutant-β-catenin mice were randomized into two groups. One group was kept on basal diet (n=12) and another group was switched to GC-1-supplemented diet (5 mg/kg of diet, Medchem Express) (n=11). Animals on control diet were sacrificed at either 21 days (n=8) or 10 days (n=4) after initiation of diet. Similarly, animals on GC-1-diet were sacrificed at either 21 days (n=7) or 10 days (n=4) after initiation of the diet. The animals were given access to food and water ad libitum with a 12-hour light/dark daily cycle. One intraperitoneal injection of BrdU was performed on day 9 during 10 days of GC-1 or basal diet treatment and livers were harvested 24 hours later. Guidelines for the Care and Use of Laboratory Animals were followed.
Four micron formalin-fixed sections were deparaffinized in graded xylene and alcohol and rinsed in PBS. To block endogenous peroxidase activity, the sections were incubated in 3% hydrogen peroxide (Sigma). For antigen retrieval, slides were microwaved in citrate buffer followed by blocking with Superblock (ScyTek Laboratories, Logan, Utah) for 10 minutes. Sections were incubated overnight at 4° C. or 1 hour room temperature in the following antibodies: cyclin-D1 (Thermo-Scientific, Fremont, Calif.), Glutamine synthetase, Ki-67, Myc-tag and CD45 (Santa Cruz Biotechnology, Dallas, Tex.). Sections were then incubated with species-specific secondary horseradish peroxidase-conjugated antibody for 30 minutes at room temperature. Sections stained with antibodies were incubated with streptavidin-biotin and signal was detected with DAB. Cell death was evaluated in liver sections by terminal deoxynucleotidyl transferase dUTP nick end labeling (TUNEL) using manufacturer's instructions available with the kit (EMD-Millipore). BrdU was stained with mouse antibody (Becton Dickinson, Franklin Lakes, N.J.) as previously described (Alvarado et al., Gene Expr 2016, 17:19-34). Briefly, tissue sections were deparaffinized, exposed to 0.3% hydrogen peroxide in deionized water for 10 minutes to block endogenous peroxidase, treated with 2N HCl, incubated with trypsin 0.1% for 20 minutes and then with normal goat serum for 20 minutes at room temperature. Sections were then incubated overnight in cold room with anti-BrdU monoclonal antibody, followed by biotinylated goat anti-mouse IgG. DAB kit was then applied, and sections were counterstained with hematoxylin.
For quantification of Ki-67 immunohistochemistry (IHC), pictures were taken at 200× magnification from either tumor or non-tumor areas in the same slide. Each picture was separated into DAB staining channel and hematoxylin staining channel by Color Deconvolution using Imagej Fiji. To quantify the number of Ki-67 positive nuclei on each picture, the DAB staining on the DAB channel was highlighted with the threshold of 48 and then quantified with Analyze Particles. All particles of areas smaller than 100 pixels were excluded. To quantify the total number of nuclei on each picture the hematoxylin staining on the hematoxylin channel was highlighted with the threshold of 205 and then quantified with Analyze Particles with similar exclusion of small areas. The percentage of Ki-67-positive nuclei on each picture was calculated by dividing the number of particles counted from DAB channel by the number of particles counted from the hematoxylin channel. […]

Cc1cc(OCC(=O)O)cc(C)c1Cc1ccc(O)c(C(C)C)c1 [GC-1, Sobetirome]
serum ALT or total bilirubin ([1]; GC-1 0.3 mg/Kg/dose daily IP 8 days, vs DMSO control): insignificant differences
hepatic histology (H&E) ([1]; GC-1 daily IP 8 days, vs DMSO control): normal hepatic histology
histological changes in the livers ([1]; T3 (4 mg/Kg of diet) or GC-1 (5 mg/Kg of diet) chow 8 days, vs basal diet): no histological changes
TopFlash luciferase reporter activity [2]: no significant effect; also recorded: insignificant differences
increase in gene expression of deiodinase (RT-PCR, liver) ([3]; 10-days of GC-1-diet vs basal diet): around 10 fold
increase in gene expression of deiodinase (RT-PCR, liver) ([3]; 21-days of GC-1-diet vs basal diet): around 40 fold
cyclin-D1 and GS IHC of tumors ([3]; 10 days GC-1 diet): continued to be positive
tumor foci by H&E and Myc-tag staining ([3]; 10 days GC-1 diet): Smaller and fewer tumor foci
gross liver appearance ([3]; 10 days GC-1 diet vs basal diet): indistinguishable
liver weight to body weight ratio (LW/BW) ([3]; 10 days GC-1 diet vs basal diet, p=0.0022): significant decrease
BrdU and Ki-67 IHC within tumor foci ([3]; 10 days GC-1 vs basal diet): notable decrease
GS levels, WB ([3]; 10 days GC-1 vs basal diet): modest decreases
Ki-67-positive cell numbers in non-tumor areas ([3]; 10 days GC-1 vs basal diet): No differences
TUNEL-positive cells ([3]; 10 days GC-1 vs basal diet): Comparable numbers
cyclin-D1 levels, WB ([3]; 10 days GC-1 vs basal diet): marginal decreases
number of CD45-positive cells (inflammation) ([3]; 10 days GC-1 vs basal diet): No differences
total and active β-catenin levels, WB ([3]; 10 days GC-1 vs basal diet): modest decrease in the levels of total but not active β-catenin
percentage of Ki-67-positive cells within tumor nodules ([3]; 10 days GC-1 vs basal diet, p<0.01): significant decrease
p-AKT levels, WB ([3]; 10 days GC-1 vs control): did not have any effect
p-ERK1 and p-ERK2, WB ([3]; 10 days GC-1 vs control): dramatically decreased
p-Met (Tyr 1234/1235), WB, two independent antibodies ([3]; 10 days GC-1 vs control): profound decrease
p-STAT3, WB ([3]; 10 days GC-1 vs control): profound decrease
total AKT levels, WB ([3]; 10 days GC-1 vs control): no change
total ERK levels, WB ([3]; 10 days GC-1 vs control): unaffected
total Met levels, WB ([3]; 10 days GC-1 vs control): modestly decreased
total STAT3 levels, WB ([3]; 10 days GC-1 vs control): overall reduced
Myc-tag levels by Western blot ([3]; 21 days GC-1 diet): modest decrease
cyclin-D1 IHC of tumor nodules ([3]; 21 days GC-1 diet): strongly positive
gross liver appearance ([3]; 21 days GC-1 diet): relatively smooth surface and smaller nodules
tumor nodules by H&E and Myc-tag IHC ([3]; 21 days GC-1 diet): notably smaller tumor nodules
liver weight to body weight ratio (LW/BW) ([3]; 21 days GC-1 diet vs basal diet, p=0.0506): almost significant decrease
GS levels, WB ([3]; 21 days GC-1 vs basal diet): modest decrease
Ki-67-positive cells in non-tumor areas ([3]; 21 days GC-1 vs basal diet): insignificant
cyclin-D1 levels, WB ([3]; 21 days GC-1 vs basal diet): no change
p-AKT levels, WB ([3]; 21 days GC-1 vs basal diet): comparable levels
p-Met (Tyr 1234/1235), WB ([3]; 21 days GC-1 vs basal diet): dramatic decrease
p-STAT3 levels, WB ([3]; 21 days GC-1 vs basal diet): striking decrease
percentage of Ki-67 positive tumor cells within nodules ([3]; 21 days GC-1 vs basal diet): insignificant differences
total AKT levels, WB ([3]; 21 days GC-1 vs basal diet): marginally increased
total Met levels, WB ([3]; 21 days GC-1 vs basal diet): only marginally and variably decreased
total STAT3 levels, WB ([3]; 21 days GC-1 vs basal diet): relatively unaltered
total and active β-catenin levels, WB ([3]; 21 days GC-1 vs basal diet): remained unaltered
total and p-ERK1 and total and p-ERK2, WB ([3]; 21 days GC-1 vs basal diet): notably decreased
TUNEL-positive cells (cell death) ([3]; 21 days, basal diet vs GC-1): More TUNEL-positive cells were evident in the basal diet group
Glutamine synthetase (GS) IHC of tumors ([3]; 21 days, both groups): uniformly and comparably positive

Reference: patent publication US10780069B2, “Use of GC-1 in transplant related population” (University of Pittsburgh—Of the Commonwealth System of …, priority 2017, dated 2020)
